# Assay results taken from ChEMBL document CHEMBL4483862, “Open-source discovery of chemical leads for next-generation chemoprotective antimalarials” (2018).
# Test system: Plasmodium berghei
# Assay: Luciferase/luciferin-expressing antifolate-resistant parasites were used to infect a culture of HepG2 cells that were pre-incubated with compounds. Infected hepatocytes emit light due to the luciferase reaction. Assay results are presented as the percent inhibition of light emission compared to control. […]
# Type: functional
# Conditions: sporozoite; for IC90: read-out: LUCIFERASE INFECTION ASSAY - IC90
# [1] = read-out: LUCIFERASE INFECTION ASSAY - IC50
Compound,IC90 [µM],also measured
CCn1nc(C)c(Sc2nccn2C)c1C,> 14,"IC50 (HEPG2TOX_HILL_SLOPE 10.5, HEPG2TOX_R_SQUARED 0.481, PBLUC_HILL_SLOPE 1.71, PBLUC_R_SQUARED 0.393, read-out: LUCIFERASE INFECTION ASSAY - IC50): 4.63 µM"
CCCc1ccc(C(=O)C(C)Sc2nnc(Cc3cccc4ccccc34)n2N)cc1 (stereo not drawn),> 10,"IC50 (FFLUC_HILL_SLOPE 1.29, FFLUC_R_SQUARED 0.471, read-out: LUCIFERASE INFECTION ASSAY - IC50): > 10 µM"
O=C(CSc1nnc(-c2c[nH]c3ccccc23)n1C1CC1)Nc1ccccc1N1CCCC1,> 10,"IC50 (HEPG2TOX_HILL_SLOPE 1.91, HEPG2TOX_R_SQUARED 0.598, PBLUC_HILL_SLOPE 0.845, PBLUC_R_SQUARED 0.661, read-out: LUCIFERASE INFECTION ASSAY - IC50): 3.63 µM"
COc1nc2c(c(-c3ccc(SC)cc3)c1C#N)Cc1ccccc1-2,> 9.58,"IC50 (HEPG2TOX_HILL_SLOPE 1.73, HEPG2TOX_R_SQUARED 0.894, PBLUC_HILL_SLOPE 2.49, PBLUC_R_SQUARED 0.21, read-out: LUCIFERASE INFECTION ASSAY - IC50): 5.33 µM"
COc1ccc(C(N)=O)cc1NC(=O)NCc1ccc(N2CCCCCC2)nc1,> 10,IC50 [1]: > 10 µM
NC(=O)NC(CC(=O)NCc1cccs1)c1cccc(Oc2ccccc2)c1 (stereo not drawn),> 10,"IC50 (FFLUC_HILL_SLOPE 0.589, FFLUC_R_SQUARED 0.0522, PBLUC_HILL_SLOPE 12.1, PBLUC_R_SQUARED 0.469, read-out: LUCIFERASE INFECTION ASSAY - IC50): 9.25 µM"
Cc1ccc(COC(=O)c2c(Cl)nc3sccn23)cc1,0.397,"IC50 (FFLUC_HILL_SLOPE 1.77, FFLUC_R_SQUARED 0.868, HEPG2TOX_HILL_SLOPE 1.9, HEPG2TOX_R_SQUARED 0.904, PBLUC_HILL_SLOPE 1.95, PBLUC_R_SQUARED 0.73, read-out: LUCIFERASE INFECTION ASSAY - IC50): 0.129 µM"
O=[N+]([O-])c1ccccc1Sc1sc2ncnc(N/N=C/c3ccc(Cl)cc3Cl)c2c1-c1ccccc1,> 10,"IC50 (FFLUC_HILL_SLOPE 17, FFLUC_R_SQUARED 0.5, read-out: LUCIFERASE INFECTION ASSAY - IC50): > 10 µM"
Cc1cc(OCC(=O)NCCc2c(C)cc(C(C)(C)C)cc2C)no1,6.12,"IC50 (PBLUC_HILL_SLOPE 10.6, 8.08, PBLUC_R_SQUARED 0.262, 0.836, read-out: LUCIFERASE INFECTION ASSAY - IC50): 4.78 µM"
COC(=O)c1sc(NC(=O)COC(=O)C2Cc3ccccc3CN2S(=O)(=O)c2cccs2)c(C(=O)OC)c1C (stereo not drawn),> 10,IC50 [1]: > 10 µM
CO[C@H]1[C@H](C)O[C@@H](O[C@H]2CC[C@]3(C)C4C[C@@H](O)[C@]5(C)[C@@H](C6=CC(=O)OC6)[C@@H](OC(C)=O)C[C@]5(O)C4CC[C@@H]3C2)C[C@@H]1O (stereo partly drawn),0.626,"IC50 (HEPG2TOX_HILL_SLOPE 2.15, HEPG2TOX_R_SQUARED 0.965, PBLUC_HILL_SLOPE 1.44, PBLUC_R_SQUARED 0.806, read-out: LUCIFERASE INFECTION ASSAY - IC50): 0.136 µM"
O=C(Nc1ccc(OC(F)(F)F)cc1)Nc1ccc2nc(-c3ccc(F)c(Cl)c3)nn2c1,> 10,"IC50 (PBLUC_HILL_SLOPE 3.06, PBLUC_R_SQUARED 0.207, read-out: LUCIFERASE INFECTION ASSAY - IC50): 7.2 µM"
Cn1c(=O)c(C2=NN(C(=O)c3cccs3)C(c3ccco3)C2)c(-c2ccccc2)c2cc(Cl)ccc21 (stereo not drawn),> 10,"IC50 (FFLUC_HILL_SLOPE 47.1, FFLUC_R_SQUARED 0.757, PBLUC_HILL_SLOPE 11.3, PBLUC_R_SQUARED 0.251, read-out: LUCIFERASE INFECTION ASSAY - IC50): 9.29 µM"
Clc1ccc2c(NC3CCN(Cc4ccccc4)CC3)ccnc2c1,8.05,"IC50 (HEPG2TOX_HILL_SLOPE 11.4, HEPG2TOX_R_SQUARED 0.805, PBLUC_HILL_SLOPE 13.2, 4.09, PBLUC_R_SQUARED 0.263, 0.797, read-out: LUCIFERASE INFECTION ASSAY - IC50): 5.96 µM"
Cc1ccc(NC(=O)c2csc(Cc3c(Cl)cccc3Cl)n2)cc1,> 8.75,IC50 [1]: > 8.75 µM
Cc1cc(C(=O)CSc2nnc(C3CC3)[nH]2)c(C)n1-c1cccc(C(F)(F)F)c1,> 10,"IC50 (HEPG2TOX_HILL_SLOPE 7.7, HEPG2TOX_R_SQUARED 0.0445, PBLUC_HILL_SLOPE 1.16, PBLUC_R_SQUARED 0.631, read-out: LUCIFERASE INFECTION ASSAY - IC50): 3.51 µM"
COc1ccc(NC(=O)c2ccc(CN(C)C3CCCCCC3)cc2)cc1,> 2,"IC50 (PBLUC_HILL_SLOPE 0.775, PBLUC_R_SQUARED 0.25, read-out: LUCIFERASE INFECTION ASSAY - IC50): 1.73 µM"
O=C(Nc1ccc(-n2nncc2-c2ccccc2)cc1)c1ccc(S(=O)(=O)N2CCCCC2)cc1,9.56,"IC50 (FFLUC_HILL_SLOPE 38.4, FFLUC_R_SQUARED 0.244, HEPG2TOX_HILL_SLOPE 8, HEPG2TOX_R_SQUARED 0.798, PBLUC_HILL_SLOPE 2.57, PBLUC_R_SQUARED 0.825, read-out: LUCIFERASE INFECTION ASSAY - IC50): 4.06 µM"
FC(F)(F)c1cccc(Nc2cc3[nH]c(-c4ccccn4)cc3cn2)c1,> 10,"IC50 (HEPG2TOX_HILL_SLOPE 12.3, HEPG2TOX_R_SQUARED 0.757, PBLUC_HILL_SLOPE 15.4, PBLUC_R_SQUARED 0.209, read-out: LUCIFERASE INFECTION ASSAY - IC50): 9.04 µM"
NC(c1csc(NC(=O)Nc2cccc3ccccc23)n1)C1CCCCC1 (stereo not drawn),> 8.67,IC50 [1]: > 8.67 µM

Compound,IC90 [µM],also measured
COc1ccccc1CNc1ccnc2cc(Cl)ccc12,3.82,"IC50 (HEPG2TOX_HILL_SLOPE 2.2, HEPG2TOX_R_SQUARED 0.908, PBLUC_HILL_SLOPE 13.6, PBLUC_R_SQUARED 0.424, read-out: LUCIFERASE INFECTION ASSAY - IC50): 3.25 µM"
CCOC(=O)c1c(N2C(=O)C=CC2=O)sc2c1CCCC2,> 10.8,"IC50 (FFLUC_HILL_SLOPE 2.83, FFLUC_R_SQUARED 0.0392, read-out: LUCIFERASE INFECTION ASSAY - IC50): > 10.8 µM"
FC(F)(F)c1cnc(N/N=C/c2ccccn2)c(Cl)c1,4,IC50 [1]: 3.33 µM
Cc1nn(Cc2nc3ccccc3s2)c(C)c1S(=O)(=O)N(C)Cc1ccco1,> 10,IC50 [1]: > 10 µM
Cc1oc(=S)n(CN2CCN(S(=O)(=O)c3ccc4ccccc4c3)CC2)c1C,> 10,IC50 [1]: > 10 µM
Cc1ccc(N/N=C/c2c3ccccc3cc3ccccc23)cc1Cl,5.87,"IC50 (HEPG2TOX_HILL_SLOPE 1.41, HEPG2TOX_R_SQUARED 0.742, PBLUC_HILL_SLOPE 1.25, PBLUC_R_SQUARED 0.657, read-out: LUCIFERASE INFECTION ASSAY - IC50): 1.01 µM"
CCN(CC)S(=O)(=O)c1ccc(SC(C)C(=O)Nc2ccc(OC(F)(F)F)cc2)nc1 (stereo not drawn),> 10,"IC50 (FFLUC_HILL_SLOPE 13.8, FFLUC_R_SQUARED 0.75, read-out: LUCIFERASE INFECTION ASSAY - IC50): > 10 µM"
OCc1ccccc1-c1cn2c(-c3ccc4c(c3)OCO4)cnc2cn1,> 9.56,"IC50 (HEPG2TOX_HILL_SLOPE 2.34, HEPG2TOX_R_SQUARED 0.695, PBLUC_HILL_SLOPE 2.89, PBLUC_R_SQUARED 0.35, read-out: LUCIFERASE INFECTION ASSAY - IC50): 8.14 µM"
O=C1C=C/C(=N\Nc2ccc3c(c2)OCCO3)c2cccnc21,3.95,"IC50 (HEPG2TOX_HILL_SLOPE 2.89, HEPG2TOX_R_SQUARED 0.923, PBLUC_HILL_SLOPE 13, PBLUC_R_SQUARED 0.601, read-out: LUCIFERASE INFECTION ASSAY - IC50): 3.33 µM"
N#Cc1ccc(-c2cnc3cnc(-c4cccc(C(N)=O)c4)cn23)cc1,8.67,"IC50 (PBLUC_HILL_SLOPE 12.9, PBLUC_R_SQUARED 0.447, read-out: LUCIFERASE INFECTION ASSAY - IC50): 7.32 µM"
Cn1ccc2cc(-c3cn4c(-c5ccc(C(=O)NC6CC6)cc5)cnc4cn3)ccc21,3.32,IC50 [1]: 2.7 µM
Fc1cccc(-c2nc3ccnc(Nc4cccc(Oc5ccccc5)c4)c3[nH]2)c1,8.85,"IC50 (HEPG2TOX_HILL_SLOPE 4.02, HEPG2TOX_R_SQUARED 0.911, PBLUC_HILL_SLOPE 2.5, PBLUC_R_SQUARED 0.399, read-out: LUCIFERASE INFECTION ASSAY - IC50): 3.68 µM"
CCCn1c(C)cc(/C=C(\C#N)C(=O)Nc2ccc3c(c2)OCO3)c1C,2.3,"IC50 (HEPG2TOX_HILL_SLOPE 1.46, HEPG2TOX_R_SQUARED 0.846, PBLUC_HILL_SLOPE 2.22, PBLUC_R_SQUARED 0.625, read-out: LUCIFERASE INFECTION ASSAY - IC50): 0.857 µM"
COc1cc(OC)c(C(=O)/C=C/c2cnc(N3CCCC3)nc2)cc1Cl,> 10,IC50 [1]: 7.4 µM
Cc1cc(C)cc(NC(=O)CNCCCn2ccc3ccccc32)c1,> 10,IC50 [1]: > 10 µM
CN(CCOc1ccc(Br)cc1)C(=O)c1[nH]nc2ccccc12,> 10,"IC50 (PBLUC_HILL_SLOPE 4.37, PBLUC_R_SQUARED 0.302, read-out: LUCIFERASE INFECTION ASSAY - IC50): 6.76 µM"
CCCCNC(=O)CN1CCN(C(=O)Cc2c(C)nc3ccccc3c2C)CC1,> 10,IC50 [1]: > 10 µM
O=C(NNc1ncc(C(F)(F)F)cc1Cl)c1c(Cl)cccc1Cl,> 8.58,"IC50 (HEPG2TOX_HILL_SLOPE 3.04, HEPG2TOX_R_SQUARED 0.858, PBLUC_HILL_SLOPE 3.51, PBLUC_R_SQUARED 0.0313, read-out: LUCIFERASE INFECTION ASSAY - IC50): 6.25 µM"
COc1ccc(Cl)cc1C(=O)NCCC(c1ccccc1)c1ccccc1,> 8.69,"IC50 (HEPG2TOX_HILL_SLOPE 6.56, HEPG2TOX_R_SQUARED 0.368, PBLUC_HILL_SLOPE 3.72, PBLUC_R_SQUARED 0.314, read-out: LUCIFERASE INFECTION ASSAY - IC50): 5.39 µM"
